Reference: patent publication US20240343733A1, “COMPOUNDS FOR TARGETING DEGRADATION OF IRAK4 PROTEINS” (BIOGEN MA INC., priority 2021, published 2024)

Columns and labels:
IRAK4 = target: T1, IRAK4 (Homo sapiens, UniProt Q9NWZ3); experiment: IRAK4 Degradation Assay, HiBiT Method; type: cell-based; settings: 293T cells expressing HiBiT-tagged IRAK4, 6 hours
T1 construct: 293Tcells expressing HiBiT-tagged IRAK4 were then added into 384-well plates
T1 sequence (Q9NWZ3 1-460): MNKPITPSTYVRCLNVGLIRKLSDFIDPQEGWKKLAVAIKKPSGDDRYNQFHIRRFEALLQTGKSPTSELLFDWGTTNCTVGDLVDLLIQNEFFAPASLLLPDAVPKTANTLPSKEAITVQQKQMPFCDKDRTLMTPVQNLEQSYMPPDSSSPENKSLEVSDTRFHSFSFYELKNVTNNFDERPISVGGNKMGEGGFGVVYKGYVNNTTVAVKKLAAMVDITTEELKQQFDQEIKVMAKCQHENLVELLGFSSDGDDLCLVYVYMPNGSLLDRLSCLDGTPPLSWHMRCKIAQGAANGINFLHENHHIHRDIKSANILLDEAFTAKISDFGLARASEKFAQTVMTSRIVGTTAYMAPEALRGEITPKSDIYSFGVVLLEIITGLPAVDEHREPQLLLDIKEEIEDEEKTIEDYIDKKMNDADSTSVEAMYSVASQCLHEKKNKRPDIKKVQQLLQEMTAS
Summary of the method: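 Luminescent read-out with Nano-Glo HiBiT lytic reagent after 6 h compound exposure at 37 °C. Cells were HiBiT-IRAK4 knock-in 293T (C-terminal tag), 10,000 per well. Compounds ran as 11-point half-log dilutions from […] highest dose, duplicate wells; DMSO served as negative control.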

IKZF1 = target: T2, IKZF1 (Homo sapiens, UniProt Q13422); experiment: IKZF1 Degradation Assay, HiBiT Method; type: cell-based; settings: NCIH929 cells expressing HiBiT-tagged IKZF1, 6 hours, top concentration 10 μM
T2 construct: endogenously expressing IKZF1 with HiBiT fusion tag via CRISPR
Description: Assay 2. IKZF1 Degradation Assay, HiBiT Method
Selected compounds of this disclosure were tested in an IKZF1 degradation assay using the HiBiT Method.
RPMI no-phenol red medium and fetal bovine serum (FBS) were purchased from Gibco (Grand Island, NY, USA). Nano-Glo® HiBiT Lytic Assay System was purchased from Promega (Madison, WI, USA). […] Cell culture flasks and 384-well microplates were acquired from VWR (Radnor, PA, USA).
IKZF1 degradation was determined based on quantification of luminescent signal using Nano-Glo® HiBiT Lytic Assay kit. […] NCIH929 cells expressing HiBiT-tagged IKZF1 were added into 384-well plates in RPMI medium containing 10% FBS and 0.05 mM 2-mercaptoethanol at a cell density of 15000 cells per well. The plates were kept at 37° C. with 5% CO2 for 6 hours. Cells treated in the absence of the test compound were the negative control and wells containing media only were the positive control. After 6-hour incubation, Nano-Glo® HiBiT Lytic Assay reagents were added to the designated wells. Luminescence was acquired on EnVision® Multilabel Reader (PerkinElmer, Santa Clara, CA, USA).

T2 sequence (Q96SW2 whole entry partner, the tested form may be a part): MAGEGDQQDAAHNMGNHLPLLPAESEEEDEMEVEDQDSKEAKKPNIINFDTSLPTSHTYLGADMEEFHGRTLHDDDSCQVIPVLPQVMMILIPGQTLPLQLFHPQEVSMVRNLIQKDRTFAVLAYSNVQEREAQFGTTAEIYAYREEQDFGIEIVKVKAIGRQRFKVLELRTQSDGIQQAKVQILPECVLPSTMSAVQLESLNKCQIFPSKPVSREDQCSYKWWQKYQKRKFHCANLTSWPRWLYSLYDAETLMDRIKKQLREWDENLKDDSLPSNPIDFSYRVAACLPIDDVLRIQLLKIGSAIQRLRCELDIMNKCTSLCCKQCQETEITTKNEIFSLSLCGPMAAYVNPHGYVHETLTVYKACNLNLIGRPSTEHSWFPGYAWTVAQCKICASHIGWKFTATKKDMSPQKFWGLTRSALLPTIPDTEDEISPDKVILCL
T2 sequence (Q16531 whole entry partner, the tested form may be a part): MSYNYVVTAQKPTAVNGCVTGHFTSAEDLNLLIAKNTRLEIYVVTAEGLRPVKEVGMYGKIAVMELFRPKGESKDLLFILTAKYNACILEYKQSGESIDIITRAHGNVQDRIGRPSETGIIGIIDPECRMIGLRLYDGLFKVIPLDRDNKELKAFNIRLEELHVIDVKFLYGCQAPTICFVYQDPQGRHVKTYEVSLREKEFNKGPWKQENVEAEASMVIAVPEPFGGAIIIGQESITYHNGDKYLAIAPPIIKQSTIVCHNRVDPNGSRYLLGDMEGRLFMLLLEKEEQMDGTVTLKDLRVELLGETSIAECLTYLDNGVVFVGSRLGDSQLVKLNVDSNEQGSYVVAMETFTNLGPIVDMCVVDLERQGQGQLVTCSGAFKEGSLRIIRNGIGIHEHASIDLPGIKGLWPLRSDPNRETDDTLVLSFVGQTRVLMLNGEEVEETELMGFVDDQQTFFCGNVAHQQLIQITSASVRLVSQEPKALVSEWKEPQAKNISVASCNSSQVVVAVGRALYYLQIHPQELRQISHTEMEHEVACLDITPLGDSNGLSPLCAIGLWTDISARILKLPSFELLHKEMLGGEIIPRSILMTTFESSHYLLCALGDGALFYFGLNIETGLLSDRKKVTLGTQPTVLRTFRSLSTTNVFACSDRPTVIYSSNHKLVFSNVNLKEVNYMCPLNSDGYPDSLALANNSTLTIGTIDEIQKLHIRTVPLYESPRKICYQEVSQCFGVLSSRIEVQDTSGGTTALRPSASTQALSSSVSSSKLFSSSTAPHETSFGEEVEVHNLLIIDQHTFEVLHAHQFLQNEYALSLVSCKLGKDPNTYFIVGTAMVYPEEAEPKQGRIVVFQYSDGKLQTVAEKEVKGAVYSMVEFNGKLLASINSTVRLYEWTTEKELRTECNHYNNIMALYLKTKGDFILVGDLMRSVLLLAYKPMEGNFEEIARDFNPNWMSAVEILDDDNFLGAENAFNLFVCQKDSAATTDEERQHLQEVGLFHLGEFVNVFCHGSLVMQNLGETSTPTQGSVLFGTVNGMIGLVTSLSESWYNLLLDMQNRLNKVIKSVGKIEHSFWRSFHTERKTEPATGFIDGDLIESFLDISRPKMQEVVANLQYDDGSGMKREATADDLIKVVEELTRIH
T2 sequence (Q13422 whole entry, the tested form may be a part): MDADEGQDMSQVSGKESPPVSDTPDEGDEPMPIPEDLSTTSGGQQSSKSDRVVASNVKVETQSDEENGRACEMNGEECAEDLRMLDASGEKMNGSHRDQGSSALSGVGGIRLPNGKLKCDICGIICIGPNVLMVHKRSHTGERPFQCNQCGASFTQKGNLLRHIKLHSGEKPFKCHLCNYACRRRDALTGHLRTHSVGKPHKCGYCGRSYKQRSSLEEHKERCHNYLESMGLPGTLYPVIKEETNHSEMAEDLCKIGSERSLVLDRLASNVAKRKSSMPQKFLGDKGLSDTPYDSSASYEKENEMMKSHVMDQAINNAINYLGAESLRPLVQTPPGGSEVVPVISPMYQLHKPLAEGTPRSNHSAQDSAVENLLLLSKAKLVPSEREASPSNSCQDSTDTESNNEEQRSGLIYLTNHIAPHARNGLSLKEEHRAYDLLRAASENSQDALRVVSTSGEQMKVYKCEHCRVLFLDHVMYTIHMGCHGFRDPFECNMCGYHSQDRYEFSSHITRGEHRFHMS

Row | SMILES | DC50 (IRAK4) [µM] | DC50 (IKZF1) [µM]
1 | Cc1cnc2c(NC(=O)c3cc4cn([C@H]5CC[C@H](CN6CCC(c7ccc(C8CCC(=O)NC8=O)cc7F)CC6)CC5)nc4cc3OC(C)C)cnn2c1 (stereo partly shown) [Example 114, 2-((1r,4r)-4-((4-(4-(2,6-dioxopiperidin-3-yl)-2-fluorophenyl)piperidin-1-yl)methyl)cyclohexyl)-6-isopropoxy-N-(6-methylpyrazolo[1,5-a]pyrimidin-3-yl)-2H-indazole-5-carboxamide] | 0.01 to 0.1 | > 10
2 | CC(C)Oc1cc2nc([C@H]3CC[C@H](CN4CCC(c5ccc(C6CCC(=O)NC6=O)cc5F)CC4)CC3)cn2cc1C(=O)Nc1cccc(C(F)F)n1 (stereo partly shown) [Example 23, N-[6-(difluoromethyl)-2-pyridyl]-2-[4-[[4-[4-(2,6-dioxo-3-piperidyl)-2-fluoro-phenyl]-1-piperidyl]methyl]cyclohexyl]-7-isopropoxy-imidazo[1,2-a]pyridine-6-carboxamide] | 0.01 to 0.1 | > 10
3 | CC(C)Oc1cc2nc([C@H]3CC[C@H](CN4CCN(c5ccc6c(N7CCC(=O)NC7=O)nn(C)c6c5)CC4)CC3)cn2cc1C(=O)Nc1cccc(C(F)F)n1 [Example 41, N-[6-(difluoromethyl)-2-pyridyl]-2-[4-[[4-[3-(2,4-dioxohexahydropyrimidin-1-yl)-1-methyl-indazol-6-yl]piperazin-1-yl]methyl]cyclohexyl]-7-isopropoxy-imidazo[1,2-a]pyridine-6-carboxamide] | 0.01 to 0.1 | > 10
4 | CC(C)Oc1cc2nn([C@H]3CC[C@H](CN4CCC(c5ccc(OC6CCC(=O)NC6=O)cc5)CC4)CC3)cc2cc1C(=O)Nc1cccn(C2CC2)c1=O (stereo partly shown) [Example 113, N-(1-cyclopropyl-2-oxo-1,2-dihydropyridin-3-yl)-2-((1r,4r)-4-((4-(4-((2,6-dioxopiperidin-3-yl)oxy)phenyl)piperidin-1-yl)methyl)cyclohexyl)-6-isopropoxy-2H-indazole-5-carboxamide] | < 0.01 | > 10
5 | CC(C)Oc1cc2nc(C3CCN(CC(=O)N4CCC(c5ccc(C6CCC(=O)NC6=O)cc5)CC4)CC3)cn2cc1C(=O)Nc1cnn2cccnc12 (stereo not shown) [Example 96, 2-[1-[2-[4-[4-(2,6-dioxo-3-piperidyl)phenyl]-1-piperidyl]-2-oxo-ethyl]-4-piperidyl]-7-isopropoxy-N-pyrazolo[1,5-a]pyrimidin-3-yl-imidazo[1,2-a]pyridine-6-carboxamide] | 0.01 to 0.1 | > 10
6 | CC(C)Oc1cc2nn([C@H]3CC[C@H](CN4CCC(c5ccc6c(c5)n(C)c(=O)n6C5CCC(=O)NC5=O)C(F)(F)C4)CC3)cc2cc1C(=O)Nc1cnn2cccnc12 (stereo partly shown) [Example 123, 2-((1r,4r)-4-((4-(1-(2,6-dioxopiperidin-3-yl)-3-methyl-2-oxo-2,3-dihydro-1H-benzo[d]imidazol-5-yl)-3,3-difluoropiperidin-1-yl)methyl)cyclohexyl)-6-isopropoxy-N-(pyrazolo[1,5-a]pyrimidin-3-yl)-2H-indazole-5-carboxamide] | < 0.01 | > 10
7 | CC(C)Oc1cc2nc([C@H]3CC[C@H](CN4CCC(c5ccc(OC6CCC(=O)NC6=O)cc5)CC4)CC3)cn2cc1C(=O)Nc1cccc(C(F)F)n1 (stereo partly shown) [Example 31, N-[6-(difluoromethyl)-2-pyridyl]-2-[4-[[4-[4-[(2,6-dioxo-3-piperidyl)oxy]phenyl]-1-piperidyl]methyl]cyclohexyl]-7-isopropoxy-imidazo[1,2-a]pyridine-6-carboxamide] | 0.01 to 0.1 | > 10
8 | CC(C)Oc1cc2nc(C3CCN(C(=O)CC4CCN(c5ncc(C6CCC(=O)NC6=O)cc5F)CC4)CC3)cn2cc1C(=O)Nc1cnn2cccnc12 (stereo not shown) [Example 162, 2-(1-(2-(1-(5-(2,6-dioxopiperidin-3-yl)-3-fluoropyridin-2-yl)piperidin-4-yl)acetyl)piperidin-4-yl)-7-isopropoxy-N-(pyrazolo[1,5-a]pyrimidin-3-yl)imidazo[1,2-a]pyridine-6-carboxamide] | 0.01 to 0.1 | > 10
9 | CC(C)Oc1cc2nn(C3CCN(C(=O)CN4CCC(c5ccc(NC6CCC(=O)NC6=O)cc5)CC4)CC3)cc2cc1C(=O)Nc1cnn2cccnc12 (stereo not shown) [Example 55, 2-(1-(2-(4-(4-((2,6-dioxopiperidin-3-yl)amino)phenyl)piperidin-1-yl)acetyl)piperidin-4-yl)-6-isopropoxy-N-(pyrazolo[1,5-a]pyrimidin-3-yl)-2H-indazole-5-carboxamide] | < 0.01 | > 10
10 | CC(C)Oc1cc2nn([C@H]3CC[C@H](CN4CCN(c5ccc(C6CCC(=O)NC6=O)cn5)CC(O)C4)CC3)cc2cc1C(=O)Nc1cccn([C@H]2C[C@H]2F)c1=O (stereo partly drawn) [Example 120, 2-((1r,4S)-4-((4-(5-(2,6-dioxopiperidin-3-yl)pyridin-2-yl)-6-hydroxy-1,4-diazepan-1-yl)methyl)cyclohexyl)-N-(1-((1S,2R)-2-fluorocyclopropyl)-2-oxo-1,2-dihydropyridin-3-yl)-6-isopropoxy-2H-indazole-5-carboxamide] | < 0.01 | > 10

The next lines start with the values.

Row | DC50 (IRAK4) [µM] | DC50 (IKZF1) [µM] | SMILES
11 | < 0.01 | > 10 | CC(C)Oc1cc2nn([C@H]3CC[C@H](CN4CCC(c5ccc(O[C@H]6CCC(=O)NC6=O)cc5)CC4)CC3)cc2cc1C(=O)Nc1cccn(C2CC2)c1=O (single isomer, unassigned) [Example 142]
12 | < 0.01 | > 10 | CC(C)Oc1cc2nc(C3CCN(C(=O)CC4(O)CCN(c5cc(F)c(NC6CCC(=O)NC6=O)cc5F)CC4)CC3)cn2cc1C(=O)Nc1cccc(C(F)F)n1 (stereo not shown) [Example 70, N-[6-(difluoromethyl)-2-pyridyl]-2-[1-[2-[1-[4-[(2,6-dioxo-3-piperidyl)amino]-2,5-difluoro-phenyl]-4-hydroxy-4-piperidyl]acetyl]-4-piperidyl]-7-isopropoxy-imidazo[1,2-a]pyridine-6-carboxamide]
13 | < 0.01 | > 10 | CC(C)Oc1cc2nc([C@H]3CC[C@H](CN4CCC(c5ccc6c(N7CCC(=O)NC7=O)nn(C)c6c5)CC4)CC3)cn2cc1C(=O)Nc1cccc(C(F)F)n1 [Example 38, N-[6-(difluoromethyl)-2-pyridyl]-2-[4-[[4-[3-(2,4-dioxohexahydropyrimidin-1-yl)-1-methyl-indazol-6-yl]-1-piperidyl]methyl]cyclohexyl]-7-isopropoxy-imidazo[1,2-a]pyridine-6-carboxamide]
14 | < 0.01 | > 10 | CC(C)Oc1cc2nc(C3CCN(C(=O)CC4CCN(c5ccc(C6CCC(=O)NC6=O)cn5)CC4)CC3)cn2cc1C(=O)Nc1cnn2cccnc12 (stereo not shown) [Example 159, 2-(1-(2-(1-(5-(2,6-dioxopiperidin-3-yl)pyridin-2-yl)piperidin-4-yl)acetyl)piperidin-4-yl)-7-isopropoxy-N-(pyrazolo[1,5-a]pyrimidin-3-yl)imidazo[1,2-a]pyridine-6-carboxamide]
